Source: patent publication US10172355B2, “Safened herbicidal compositions including 4-amino-3-chloro-5-fluoro-6-(4-chloro-2-fluoro-3-methoxyphenyl)pyridine-2-carboxylic acid or a derivative thereof for use in rice” (Dow AgroSciences LLC, priority 2012, dated 2019)

Legend:
[1] = tested on: ECHCG=Echinochloa crus-galli; experiment: In-water applied herbicides in paddy, visual injury of weed; assay type: in vivo
Procedure: (§1) Weed seeds or nutlets of the desired test plant species were planted in puddled soil (mud) prepared by mixing a shredded, non-sterilized mineral soil (50.5 percent silt, 25.5 percent clay, and 24 percent sand, with a pH of about 7.6 and an organic matter content of about 2.9 percent) and water at a 1:1 volumetric ratio. The prepared mud was dispensed in 365 mL aliquots into 16-ounce (oz.) non-perforated plastic pots with a surface area of 86.59 square centimeters (cm^2) leaving a headspace of 3 centimeters (cm) in each pot. Rice seeds were planted in Sun Gro MetroMix® 306 planting mixture, which typically has a pH of 6.0 to 6.8 and an organic matter content of about 30 percent, in plastic plug trays. Seedlings at the second or third leaf stage of growth were transplanted into 860 mL of mud contained in 32-oz. non-perforated plastic pots with a surface area of 86.59 cm^2 4 days prior to herbicide application. The paddy was created by filling the headspace of the pots with 2.5 to 3 cm of water. When required to ensure good germination and healthy plants, a fungicide treatment and/or other chemical or physical treatment was applied. The plants were grown for 4-22 days in a greenhouse with an approximate 14 h photoperiod which was maintained at about 29′C during the day and about 26° C. during the night. Nutrients were added as Osmocote® (17:6:10, N:P:K+minor nutrients) at 2 g per 16-oz. pot and 4 g per 32-oz. pot. Water was added on a regular basis to maintain the paddy flood, and supplemental lighting was provided with overhead metal halide 1000-Watt lamps as necessary. The plants were employed for testing when they reached the second or third true leaf stage.
(§2) Treatments consisted of the acid or esters of 4-amino-3-chloro-5-fluoro-6-(4-chloro-2-fluoro-3-methoxy-phenyl)pyridine-2-carboxylic acid (compound A) and various safeners alone and in combination. Forms of compound A were applied on an acid equivalent basis. Safener components were applied on an active ingredient or acid equivalent basis depending on the compound.
(§3) Treatment requirements for each compound or herbicidal component were calculated based upon the rates being tested, the concentration of active ingredient or acid equivalent in the formulation, an application volume of 2 mL per component per pot, and an application area of 86.59 cm^2 per pot.
(§4) For formulated compounds, a measured amount was placed in an individual 100 or 200 mL glass vial and was dissolved in a volume of 1.25% (v/v) Agri-Dex® crop oil concentrate to obtain application solutions.
(§5) For technical grade compounds, a weighed amount can be placed in an individual 100 to 200 mL glass vial and dissolved in a volume of acetone to obtain concentrated stock solutions. […] The concentrated stock solutions obtained can be diluted with an equivalent volume of an aqueous mixture containing 2.5% (v/v) crop oil concentrate so that the final application solutions contain 1.25% (v/v) crop oil concentrate.
(§6) Applications were made by injecting with a pipetter appropriate amounts of the application solutions, individually and sequentially, into the aqueous layer of the paddy. Control plants were treated in the same manner with the solvent blank. Applications were made so that all treated plant material received the same concentrations of acetone and crop oil concentrate.
(§7) The treated plants and control plants were placed in a greenhouse as described above and water was added as needed to maintain a paddy flood. After approximately 3 weeks the condition of the test plants as compared with that of the untreated plants was determined visually and scored on a scale of 0 to 100 percent where 0 corresponds to no injury or growth inhibition and 100 corresponds to complete kill.
Some of the safener-herbicide combinations tested, application rates and ratios employed, plant species tested, and results are given in Tables 16-17. […]

ORYSA=Orysa sativa, Rice = experiment: In-water applied herbicides and safeners in transplanted paddy rice, visual injury; assay type: in vivo; conditions: for Mean Visual Injury (%) - 21 DAA ORYSA - ‘M202’ / Mean Visual Injury (%) - 21 DAA ORYSA - ‘Wells’: in-water applied
Procedure: as §1, §2, §3, §4, §5, §6, §7
Colby's equation was used to determine the herbicidal effects expected from the mixtures (Colby, S. R. 1967. Calculation of the synergistic and antagonistic response of herbicide combinations. Weeds 15:20-22.). […]

| Structure (SMILES) | Mean Visual Injury (%) - 21 DAA ECHCG ([1]; 8.75 g ae/ha) [%] | Mean Visual Injury (%) - 21 DAA ECHCG ([1]; 17.5 g ae/ha) [%] | Mean Visual Injury (%) - 21 DAA ECHCG ([1]; 35 g ae/ha) [%] | Mean Visual Injury (%) - 21 DAA ECHCG ([1]; 70 g ae/ha) [%] | Mean Visual Injury (%) - 21 DAA ECHCG ([1]; 140 g ae/ha) [%] | Mean Visual Injury (%) - 21 DAA ORYSA - ‘M202’ (ORYSA=Orysa sativa, Rice; 8.75 g ae/ha) [%] | Mean Visual Injury (%) - 21 DAA ORYSA - ‘Wells’ (ORYSA=Orysa sativa, Rice; 8.75 g ae/ha) [%] | Mean Visual Injury (%) - 21 DAA ORYSA - ‘M202’ (ORYSA=Orysa sativa, Rice; 17.5 g ae/ha) [%] | Mean Visual Injury (%) - 21 DAA ORYSA - ‘Wells’ (ORYSA=Orysa sativa, Rice; 17.5 g ae/ha) [%] | Mean Visual Injury (%) - 21 DAA ORYSA - ‘M202’ (ORYSA=Orysa sativa, Rice; 35 g ae/ha) [%] | Mean Visual Injury (%) - 21 DAA ORYSA - ‘Wells’ (ORYSA=Orysa sativa, Rice; 35 g ae/ha) [%] | Mean Visual Injury (%) - 21 DAA ORYSA - ‘M202’ (ORYSA=Orysa sativa, Rice; 70 g ae/ha) [%] | Mean Visual Injury (%) - 21 DAA ORYSA - ‘Wells’ (ORYSA=Orysa sativa, Rice; 70 g ae/ha) [%] | Mean Visual Injury (%) - 21 DAA ORYSA - ‘M202’ (ORYSA=Orysa sativa, Rice; 140 g ae/ha) [%] | Mean Visual Injury (%) - 21 DAA ORYSA - ‘Wells’ (ORYSA=Orysa sativa, Rice; 140 g ae/ha) [%] | selectivity margin (ORYSA=Orysa sativa, Rice; in-water, relative rice and barnyardgrass responses, over that of the acid) |
| --- | --- | --- | --- | --- | --- | --- | --- | --- | --- | --- | --- | --- | --- | --- | --- | --- |
| COc1c(Cl)ccc(-c2nc(C(=O)O)c(Cl)c(N)c2F)c1F [Acid, 4-amino-3-chloro-6-(4-chloro-2-fluoro-3-methoxyphenyl)-5-fluoropyridine-2-carboxylic acid] | 0 | 0 | 10 | 63 | 95 | 0 | 0 | 0 | 0 | 0 | 0 | 3 | 0 | 25 | 8 |  |
| COc1c(Cl)ccc(-c2nc(C(=O)OCc3ccccc3)c(Cl)c(N)c2F)c1F [Benzyl] | 23 | 43 | 81 | 100 | 100 | 0 | 0 | 0 | 0 | 0 | 3 | 0 | 0 | 22 | 15 | improved selectivity margin |
